Laboratory results as given in patent US6525001B1, “Substituted pyrimidine and pyridine herbicides” (Mid-American Commercialization Corporation, priority 1997, dated 2003).

Experiments:
Format in all cases: in vivo
[1] = test system: smallflower flatsedge (Cyperus difformis); test: Test B flood test
Procedure: (§1) At the same time, these crop and weed species were also treated with postemergence applications of test chemicals formulated in the same manner. Plants ranged in height from 2 to 18 cm (1- to 4-leaf stage) for postemergence treatments. Plant species in the flood test consisted of rice (Oryza sativa), smallflower flatsedge (Cyperus difformis), duck salad (Heteranthera limosa) and bamyardgrass (Echinochloa crus-galli) grown to the 2-leaf stage for testing. Treated plants and controls were maintained in a greenhouse for twelve to sixteen days, after which all species were compared to controls and visually evaluated. Plant response ratings, summarized in Table B, are based on a scale of 0 to 10 where 0 is no effect and 10 is complete control. A dash (−) response means no test result.

[2] = test system: duck salad (Heteranthera limosa); test: Test B flood test
Procedure: as §1

[3] = test system: rice (Oryza sativa); test: Test B flood test
Procedure: as §1

[4] = test system: bamyardgrass (Echinochloa crus-galli); test: Test B flood test
Procedure: as §1

[5] = test system: cocklebur (Xanthium strumarium); test: Test B pre-/postemergence; design: key: 0 is no effect; 10 is complete control; details: for Cocklebur plant response rating: Preemergence
Excerpt: (§2) Seeds of bedstraw (Galium aparine), blackgrass (Alopecurus myosuroides), broadleaf signalgrass (Brachiaria decumbens), cocklebur (Xanthium strumarium), corn (Zea mays), crabgrass (Digitaria sanguinalis), giant foxtail (Setaria faberii), lambsquarters (Chenopodium album), momingglory (Ipomoea hederacea), pigweed (Amaranthus retroflexus), rape (Brassica napus), soybean (Glycine max), sugar beet (Beta vulgaris), velvetleaf (Abutilon theophrasti), wheat (Triticum aestivum), wild oat (Avena fatua) and purple nutsedge (Cyperus rotundus) tubers were planted and treated preemergence with test chemicals formulated in a non-phytotoxic solvent mixture which included a surfactant.
as §1

[6] = test system: bedstraw (Galium aparine); test: Test B pre-/postemergence; design: key: 0 is no effect; 10 is complete control; details: for Bedstraw plant response rating: Preemergence
Excerpt: as §2, §1

[7] = test system: broadleaf signalgrass (Brachiaria decumbens); test: Test B pre-/postemergence; design: key: 0 is no effect; 10 is complete control; details: for B. signalgrass plant response rating: Preemergence
Excerpt: as §2, §1

[8] = test system: crabgrass (Digitaria sanguinalis); test: Test B pre-/postemergence; design: key: 0 is no effect; 10 is complete control; details: for Crabgrass plant response rating: Preemergence
Excerpt: as §2, §1

[9] = test system: sugar beet (Beta vulgaris); test: Test B pre-/postemergence; design: key: 0 is no effect; 10 is complete control
Excerpt: as §2, §1

[10] = test system: rape (Brassica napus); test: Test B pre-/postemergence; design: key: 0 is no effect; 10 is complete control
Excerpt: as §2, §1

[11] = test system: blackgrass (Alopecurus myosuroides); test: Test B pre-/postemergence; design: key: 0 is no effect; 10 is complete control; details: for Blackgrass plant response rating: Preemergence
Excerpt: as §2, §1

[12] = test system: wheat (Triticum aestivum); test: Test B pre-/postemergence; design: key: 0 is no effect; 10 is complete control
Excerpt: as §2, §1

[13] = test system: corn (Zea mays); test: Test B pre-/postemergence; design: key: 0 is no effect; 10 is complete control; details: for Corn plant response rating: Preemergence
Excerpt: as §2, §1

[14] = test system: momingglory (Ipomoea hederacea); test: Test B pre-/postemergence; design: key: 0 is no effect; 10 is complete control
Excerpt: as §2, §1

[15] = test system: wild oat (Avena fatua); test: Test B pre-/postemergence; design: key: 0 is no effect; 10 is complete control
Excerpt: as §2, §1

[16] = test system: pigweed (Amaranthus retroflexus); test: Test B pre-/postemergence; design: key: 0 is no effect; 10 is complete control
Excerpt: as §2, §1

[17] = test system: soybean (Glycine max); test: Test B pre-/postemergence; design: key: 0 is no effect; 10 is complete control
Excerpt: as §2, §1

[18] = test system: velvetleaf (Abutilon theophrasti); test: Test B pre-/postemergence; design: key: 0 is no effect; 10 is complete control
Excerpt: as §2, §1

[19] = test system: giant foxtail (Setaria faberii); test: Test B pre-/postemergence; design: key: 0 is no effect; 10 is complete control
Excerpt: as §2, §1

[20] = Rate 62 g/ha, Postemergence (flood test)
[21] = Rate 125 g/ha, Postemergence section (flood test species)
[22] = Rate 250 g/ha, Postemergence (flood test species)
[23] = Rate 125 g/ha, Postemergence, flood test
[24] = Rate 250 g/ha, Postemergence (so in the source)

For CCc1cnc(-n2cnc(C(F)(F)F)c2)nc1Cc1cccc(OC(F)(F)F)c1 [Compound 49], the “Plant response rating, S. Flatsedge” value [1, 20] was 4, the “S. Flatsedge plant response rating” value [1, 21] was 4 and the “Plant response rating, S. Flatsedge” value [1, 22] was 9. For the same compound, the “Plant response rating, Ducksalad” value [2, 20] was 4, the “Plant response rating, Ducksalad” value [2, 23] was 4 and the “Plant response rating, Ducksalad” value [2, 22] was 4. For the same compound, the “Plant response rating, Rice” value [3, 20] was 3, the “Rice plant response rating” value [3, 21] was 4 and the “Plant response rating, Rice” value [3, 22] was 5. For the same compound, the “Plant response rating, Barnyardgrass” value [4, 20] was 5, the “Plant response rating, Barnyardgrass” value [4, 23] was 5 and the “Plant response rating, Barnyardgrass” value [4, 22] was 6. For the same compound, the “Plant response rating, Cocklebur” value ([5]; Rate 62 g/ha, Postemergence) was 7, the “Cocklebur plant response rating” value ([5]; Rate 62 g/ha) was 0 and the “Plant response rating, Cocklebur” value ([5]; Rate 125 g/ha, Postemergence) was 7. For the same compound, the “Cocklebur plant response rating” value ([5]; Rate 125 g/ha) was 0, the “Plant response rating, Cocklebur” value ([5]; Rate 250 g/ha, Postemergence) was 9 and the “Plant response rating, Cocklebur” value [5, 24] was 2. For the same compound, the “Plant response rating, Bedstraw” value ([6]; Rate 62 g/ha, Postemergence) was 9, the “Bedstraw plant response rating” value ([6]; Rate 62 g/ha) was 4 and the “Bedstraw plant response rating” value ([6]; Rate 125 g/ha) was 7. The “Plant response rating, Bedstraw” value [6, 24] was 8, the “Plant response rating, B. signalgrass” value ([7]; Rate 62 g/ha, Postemergence) was 2 and the “B. signalgrass plant response rating” value ([7]; Rate 62 g/ha) was 0. For the same compound, the “Plant response rating, B. signalgrass” value ([7]; Rate 125 g/ha, Postemergence) was 3, the “B. signalgrass plant response rating” value ([7]; Rate 125 g/ha) was 1 and the “Plant response rating, B. signalgrass” value ([7]; Rate 250 g/ha, Postemergence) was 4. For the same compound, the “Plant response rating, B. signalgrass” value ([7]; Rate 250 g/ha, Postemergence as printed in head r139 (second section for compounds 26-50)) was 5, the “Plant response rating, Crabgrass” value ([8]; Rate 62 g/ha, Postemergence) was 5 and the “Crabgrass plant response rating” value ([8]; Rate 62 g/ha) was 5. For the same compound, the “Plant response rating, Crabgrass” value ([8]; Rate 125 g/ha, Postemergence) was 6, the “Crabgrass plant response rating” value ([8]; Rate 125 g/ha) was 7 and the “Plant response rating, Crabgrass” value ([8]; Rate 250 g/ha, Postemergence) was 9. The “Plant response rating, Crabgrass” value [8, 24] was 9, the “Plant response rating, Sugarbeets” value ([9]; Rate 62 g/ha, Postemergence) was 9 and the “Sugarbeets plant response rating” value ([9]; Rate 62 g/ha, Preemergence) was 6. The “Sugarbeets plant response rating” value ([9]; Rate 125 g/ha, Postemergence) was 9, the “Plant response rating, Sugarbeets” value ([9]; Rate 125 g/ha, Preemergence) was 6 and the “Plant response rating, Sugarbeets” value ([9]; Rate 250 g/ha, Postemergence) was 9. For the same compound, the “Plant response rating, Sugarbeets” value [9, 24] was 9, the “Plant response rating, Rape” value ([10]; Rate 62 g/ha, Postemergence) was 9 and the “Rape plant response rating” value ([10]; Rate 62 g/ha, Preemergence) was 7. The “Rape plant response rating” value ([10]; Rate 125 g/ha, Postemergence) was 9, the “Rape plant response rating” value ([10]; Rate 125 g/ha, Preemergence) was 8 and the “Plant response rating, Rape” value ([10]; Rate 250 g/ha, Postemergence) was 9. For the same compound, the “Plant response rating, Rape” value [10, 24] was 10, the “Plant response rating, Blackgrass” value ([11]; Rate 62 g/ha, Postemergence) was 5 and the “Blackgrass plant response rating” value ([11]; Rate 62 g/ha) was 4. The “Plant response rating, Blackgrass” value ([11]; Rate 125 g/ha, Postemergence) was 6, the “Blackgrass plant response rating” value ([11]; Rate 125 g/ha) was 4 and the “Plant response rating, Blackgrass” value ([11]; Rate 250 g/ha, Postemergence) was 6. For the same compound, the “Plant response rating, Blackgrass” value [11, 24] was 6, the “Wheat plant response rating” value ([12]; Rate 62 g/ha, Postemergence) was 4 and the “Wheat plant response rating” value ([12]; Rate 62 g/ha, Preemergence) was 1. The “Wheat plant response rating” value ([12]; Rate 125 g/ha, Postemergence) was 5, the “Plant response rating, Wheat” value ([12]; Rate 125 g/ha, Preemergence) was 4 and the “Plant response rating, Wheat” value ([12]; Rate 250 g/ha, Postemergence) was 5. The “Plant response rating, Wheat” value [12, 24] was 4, the “Plant response rating, Corn” value ([13]; Rate 62 g/ha, Postemergence) was 3 and the “Corn plant response rating” value ([13]; Rate 62 g/ha) was 0. For the same compound, the “Plant response rating, Corn” value ([13]; Rate 125 g/ha, Postemergence) was 3, the “Corn plant response rating” value ([13]; Rate 125 g/ha) was 1 and the “Plant response rating, Corn” value ([13]; Rate 250 g/ha, Postemergence) was 4. The “Plant response rating, Corn” value [13, 24] was 1, the “Plant response rating, Morningglory” value ([14]; Rate 62 g/ha, Postemergence) was 2 and the “Morningglory plant response rating” value ([14]; Rate 62 g/ha, Preemergence) was 1. For the same compound, the “Morningglory plant response rating” value ([14]; Rate 125 g/ha, Postemergence) was 6, the “Morningglory plant response rating” value ([14]; Rate 125 g/ha, Preemergence) was 3 and the “Plant response rating, Morningglory” value ([14]; Rate 250 g/ha, Postemergence) was 9. The “Plant response rating, Morningglory” value [14, 24] was 4, the “Wild oats plant response rating” value ([15]; Rate 62 g/ha, Postemergence) was 5 and the “Wild oats plant response rating” value ([15]; Rate 62 g/ha, Preemergence) was 2. The “Wild oats plant response rating” value ([15]; Rate 125 g/ha, Postemergence) was 6, the “Plant response rating, Wild oats” value ([15]; Rate 125 g/ha, Preemergence) was 6 and the “Plant response rating, Wild oats” value ([15]; Rate 250 g/ha, Postemergence) was 7. The “Plant response rating, Wild oats” value [15, 24] was 7, the “Plant response rating, Redroot pigweed” value ([16]; Rate 62 g/ha, Postemergence) was 9 and the “Redroot pigweed plant response rating” value ([16]; Rate 62 g/ha, Preemergence) was 8. For the same compound, the “Redroot pigweed plant response rating” value ([16]; Rate 125 g/ha, Postemergence) was 9, the “Redroot pigweed plant response rating” value ([16]; Rate 125 g/ha, Preemergence) was 8 and the “Plant response rating, Redroot pigweed” value ([16]; Rate 250 g/ha, Postemergence) was 9. For the same compound, the “Plant response rating, Redroot pigweed” value [16, 24] was 10, the “Plant response rating, Soybean” value ([17]; Rate 62 g/ha, Postemergence) was 6 and the “Soybean plant response rating” value ([17]; Rate 62 g/ha, Preemergence) was 0. The “Soybean plant response rating” value ([17]; Rate 125 g/ha, Postemergence) was 7, the “Plant response rating, Soybean” value ([17]; Rate 125 g/ha, Preemergence) was 1 and the “Plant response rating, Soybean” value ([17]; Rate 250 g/ha, Postemergence) was 7. For the same compound, the “Plant response rating, Soybean” value [17, 24] was 1, the “Plant response rating, Velvetleaf” value ([18]; Rate 62 g/ha, Postemergence) was 8 and the “Velvetleaf plant response rating” value ([18]; Rate 62 g/ha, Preemergence) was 3. The “Velvetleaf plant response rating” value ([18]; Rate 125 g/ha, Postemergence) was 8, the “Plant response rating, Velvetleaf” value ([18]; Rate 125 g/ha, Preemergence) was 8 and the “Plant response rating, Velvetleaf” value ([18]; Rate 250 g/ha, Postemergence) was 9. The “Plant response rating, Velvetleaf” value [18, 24] was 8, the “Plant response rating, Giant foxtail” value ([19]; Rate 62 g/ha, Postemergence) was 2 and the “Giant foxtail plant response rating” value ([19]; Rate 62 g/ha, Preemergence) was 5. The “Giant foxtail plant response rating” value ([19]; Rate 125 g/ha, Postemergence) was 5, the “Giant foxtail plant response rating” value ([19]; Rate 125 g/ha, Preemergence) was 8 and the “Plant response rating, Giant foxtail” value ([19]; Rate 250 g/ha, Postemergence) was 5. The “Plant response rating, Giant foxtail” value [19, 24] was 9.
